Columns and labels:
HT29 cells = experiment: CHK1 Cellular Assay - Gemcitabine EC50 Assay; type: cell-based; details: HT29 cells, in the presence of gemcitabine at 10 nM, 72 hours, SRB staining; read-out: CHK1 Cellular Activity (EC50 range)
Experimental: The gemcitabine EC50 assay was developed as a rapid method for screening CHK1 inhibitors to determine their relative cell activity. This assay utilises a feature of the effect of CHK1 inhibitors on gemcitabine toxicity. In the absence of a CHK1 inhibitor, gemcitabine acts predominantly as an anti-metbolite and therefore induces very little cell death, even at high concentrations. This can be as high as 70-80% survival at concentrations in excess of 1 μM. However, in the presence of a CHK1 inhibitor, the mechanism of action of gemcitabine switches to a more classical cytotoxic mode of action. For example, the fraction of cells surviving can be reduced to around 30% and below. Concentrations of gemcitabine can be selected that in the absence of a CHK1 inhibitor, have no effect on cell survival but in the presence of a CHK1 inhibitor are highly cytotoxic. 10000 HT29 cells were plated per well of a 96 well plate and allowed to attach at 37° C. in a 5% CO2 humidified incubator for 18 hours. CHK1 inhibitors were then titrated in the presence of 10, 15 and 20 nM gemcitabine for 72 hours and the EC50 determined by staining with sulforhodamine B (SRB) and determining the absorbance at 540 nm.

CHK1 = target: T1, CHK1 (Homo sapiens, UniProt O14757); experiment: CHK1 Enzyme Assay (phosphorylation of Chktide peptide, 33P-ATP filter assay); type: biochemical; details: 12.5 nM His-CHK1, 0.01 mM ATP, 40 minutes at 30° C.; read-out: CHK1 Enzyme Activity (IC50 range)
T1 construct: His; purchased Invitrogen
T1 sequence (O14757 1-476): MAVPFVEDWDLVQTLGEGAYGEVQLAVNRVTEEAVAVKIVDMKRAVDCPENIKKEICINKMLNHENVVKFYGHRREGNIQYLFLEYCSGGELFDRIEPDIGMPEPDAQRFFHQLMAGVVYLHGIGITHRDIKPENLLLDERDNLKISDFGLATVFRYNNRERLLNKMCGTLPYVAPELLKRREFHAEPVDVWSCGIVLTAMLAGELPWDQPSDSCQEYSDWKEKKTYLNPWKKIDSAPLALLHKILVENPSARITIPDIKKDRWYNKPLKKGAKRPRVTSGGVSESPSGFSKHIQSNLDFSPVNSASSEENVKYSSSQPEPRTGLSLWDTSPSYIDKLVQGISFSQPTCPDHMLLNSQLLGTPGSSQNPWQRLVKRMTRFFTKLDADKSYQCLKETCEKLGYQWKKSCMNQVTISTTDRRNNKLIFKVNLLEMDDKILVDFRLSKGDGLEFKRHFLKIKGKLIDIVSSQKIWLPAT
Method in brief: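 His-CHK1 (12.5 nM) phosphorylating 14.8 μM Chktide with 0.01 mM ATP plus 33P-γ-ATP, in 50 mM Hepes-NaOH pH 7.5 with 0.1 mg/mL BSA. Incubated with inhibitor for 40 min at 30 °C. Stopped with phosphoric acid; phosphopeptide captured on filter and counted by scintillation.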

SMILES	EC50 (HT29 cells) [nM]	IC50 (CHK1) [nM]
O=C(Nc1c[nH]c(=O)c(-c2cc3ccccc3[nH]2)c1)c1cnn(Cc2ccccc2)c1 [Example 20, 1-Benzyl-1H-pyrazole-4-carboxylic acid [5-(1H-indol-2-yl)-6-oxo-1,6-dihydro-pyridin-3-yl]-amide]	100 to 500	< 100
CC(C)(COc1ccc2[nH]c(-c3cc(NC(=O)c4cnn(Cc5ccccc5)c4)c[nH]c3=O)cc2c1)CN1CCCCC1 [Example 185, 1-Benzyl-1H-pyrazole-4-carboxylic acid {5-[5-(2,2-dimethyl-3-piperidin-1-yl-propoxy)-1H-indol-2-yl]-6-oxo-1,6-dihydro-pyridin-3-yl}-amide]	< 100	< 100
CCN(CC)CC(C)(C)COc1ccc2[nH]c(-c3cc(NC(=O)c4cnn(Cc5ccccc5)c4)c[nH]c3=O)cc2c1 [Example 178, 1-Benzyl-1H-pyrazole-4-carboxylic acid {5-[5-(3-diethylamino-2,2-dimethyl-propoxy)-1H-indol-2-yl]-6-oxo-1,6-dihydro-pyridin-3-yl}-amide]	< 100	< 100
CCN(Cc1ccc2[nH]c(-c3cc(NC(=O)c4cnn(Cc5ccccc5)c4)c[nH]c3=O)cc2c1)CC(C)(C)CN(C)C [Example 176, 1-Benzyl-1H-pyrazole-4-carboxylic acid [5-(5-{[(3-dimethylamino-2,2-dimethyl-propyl)-ethyl-amino]-methyl}-1H-indol-2-yl)-6-oxo-1,6-dihydro-pyridin-3-yl]-amide]	100 to 500	< 100

From US9604975B2, “Indolyl-pyridone derivatives having checkpoint kinase 1 inhibitory activity” (Vernalis (R&D) Ltd., priority 2009, dated 2017)
